In US7060822B1, “2-pyrazolin-5-ones” (Abbott GmbH & Co. KG, priority 1999, dated 2006):

| Structure (SMILES) | melting point |
| --- | --- |
| O=C1NN=C(Cc2ccccc2)C1=Cc1cn(CCCCO)c2ncccc12 [Example 334, 3-Benzyl-4-{[1-(4-hydroxybutyl)-7-azaindol-3-yl]methylene}-2-pyrazolin-5-one] | 176 to 179 °C |
| COc1ccc(OCC2=NNC(=O)C2=Cc2c[nH]c3ncccc23)cc1 [Example 335, 4-[(7-Azaindol-3-yl)methylene]-3-(4-methoxyphenyloxymethyl)-2-pyrazolin-5-one] | 300 to 302 °C |
| CC(C)OC1=NNC(=O)C1=Cc1c[nH]c2ncccc12 [Example 336, 4-[(7-Azaindol-3-yl)methylene]-3-isopropoxy-2-pyrazolin-5-one] | 258 to 260 °C |
| NC1=NNC(=O)C1=Cc1c[nH]c2ncccc12 [Example 337, 3-Amino-4-[(7-azaindol-3-yl)methylene]-2-pyrazolin-5-one] | > 300 °C |
| COc1ccc(CC2=NNC(=O)C2=Cc2c[nH]c3ncccc23)cc1 [Example 338, 4-[(7-Azaindol-3-yl)methylene]-3-(4-methoxybenzyl)-2-pyrazolin-5-one] | 273 to 276 °C |
| O=C1NN=C(Nc2ccccc2)C1=Cc1c[nH]c2ncccc12 [Example 339, 4-[(7-Azaindol-3-yl)methylene]-3-phenylamino-2-pyrazolin-5-one] | 249 to 252 °C |
| Cc1ccc(CC2=NNC(=O)C2=Cc2c[nH]c3ncccc23)cc1 [Example 340, 4-[(7-Azaindol-3-yl)methylene]-3-(4-methylbenzyl)-2-pyrazolin-5-one] | > 300 °C |
| O=C1NN=C(CCc2ccc(O)cc2)C1=Cc1c[nH]c2ncccc12 [Example 341, 4-[(7-Azaindol-3-yl)methylene]-3-(4-hydroxyphenylethyl)-2-pyrazolin-5-one] | 270 to 272 °C |
| O=C1NN=C(CCc2ccc(O)cc2)C1=Cc1cn(CCCCO)c2ncccc12 [Example 342, 4-{[1-(4-Hydroxybutyl)-7-azaindol-3-yl]methylene}-3-(4-hydroxyphenylethyl)-2-pyrazolin-5-one] | 211 to 212 °C |
| CC(C)C1=NNC(=O)C1=Cc1c[nH]c2ncccc12 [Example 343, 4-[(7-Azaindol-3-yl)methylene]-3-isopropyl-2-pyrazolin-5-one] | 300 °C (dec.) |
| O=C1NN=C(C2CC2)C1=Cc1c[nH]c2ncccc12 [Example 344, 4-[(7-Azaindol-3-yl)methylene]-3-cyclopropyl-2-pyrazolin-5-one] | 245 to 246 °C |
| O=C1NN=C(C2CCC2)C1=Cc1c[nH]c2ncccc12 [Example 345, 4-[(7-Azaindol-3-yl)methylene]-3-cyclobutyl-2-pyrazolin-5-one] | 300 to 302 °C |
| O=C1NN=C(c2ccccc2)C1=Cc1c[nH]c2ncccc12 [Example 347, 4-[(7-Azaindol-3-yl)methylene]-3-phenyl-2-pyrazolin-5-one] | 280 to 282 °C |
| O=C1NN=C(CCc2ccccc2)C1=Cc1c[nH]c2ncccc12 [Example 357, 4-[(7-Azaindol-3-yl)methylene]-3-phenylethyl-2-pyrazolin-5-one] | 317 to 319 °C |
| CN(C)c1ccc(C=C2C(=O)NN=C2Cc2ccccc2)cc1 [Example 358, 3-Benzyl-4-[(4-dimethylaminophenyl)methylene]-2-pyrazolin-5-one] | 253 to 255 °C |
| CC(C)OC1=NNC(=O)C1=Cc1ccc(N(C)C)cc1 [Example 359, 4-[(4-Dimethylaminophenyl)methylene]-3-isopropoxy-2-pyrazolin-5-one] | 197 to 198 °C |
| CN(C)c1ccc(C=C2C(=O)NN=C2CCc2ccccc2)cc1 [Example 360, 4-[(4-Dimethylaminophenyl)methylene]-3-phenylethyl-2-pyrazolin-5-one] | 224 to 225 °C |

Further lines, results first:

| melting point | Structure (SMILES) |
| --- | --- |
| 280 to 289 °C | CN(C)c1ccc(C=C2C(=O)NN=C2C2CC2)cc1 [Example 361, 3-Cyclopropyl-4-[(4-dimethylaminophenyl)methylene]-2-pyrazolin-5-one] |
| 228 to 230 °C | Cc1n[nH]cc1C=C1C(=O)NN=C1OC(C)C [Example 362, 3-Isopropoxy-4-[(3-methylpyrazol-4-yl)methylene]-2-pyrazolin-5-one] |
| 265 to 267 °C | Cc1n[nH]cc1C=C1C(=O)NN=C1C1CC1 [Example 363, 3-Cyclopropyl-4-[(3-methylpyrazol-4-yl)methylene]-2-pyrazolin-5-one] |
| 212 to 214 °C | CC(C)OC1=NNC(=O)C1=Cc1ncc[nH]1 [Example 364, 4-[(Imidazol-2-yl)methylene]-3-isopropoxy-2-pyrazolin-5-one] |
| 264 to 266 °C | O=C1NN=C(C2CC2)C1=Cc1ncc[nH]1 [Example 365, 3-Cyclopropyl-4-[(imidazol-2-yl)methylene]-2-pyrazolin-5-one] |
| 259 to 260 °C | CC(C)OC1=NNC(=O)C1=Cc1c[nH]cn1 [Example 366, 4-[(Imidazol-4-yl)methylene]-3-isopropoxy-2-pyrazolin-5-one] |
| 275 to 277 °C | O=C1NN=C(C2CC2)C1=Cc1cccs1 [Example 367, 3-Cyclopropyl-4-[(thien-2-yl)methylene]-2-pyrazolin-5-one] |
| 241 to 242 °C | CC(C)C1=NN(C)C(=O)C1=Cc1c[nH]c2ccccc12 [Example 368, 4[(Indol-3-yl)methylene]-3-isopropyl-1-methyl-2-pyrazolin-5-one] |
| 252 to 255 °C | CC(C)OC1=NNC(=O)C1=Cc1cc[nH]c1 [Example 369, 3-Isopropoxy-4-[(pyrrol-3-yl)methylene]-2-pyrazolin-5-one] |
| > 300 °C | CC(C)OC1=NNC(=O)C1=Cc1ccc(O)c2ncccc12 [Example 370, 4-[(8-Hydroxyquinolin-5-yl)methylene]-3-isopropoxy-2-pyrazolin-5-one] |
